pIC50: −log10 of the molar value.
What was measured:
Test in all cases: cells
NMC-G1 = assay type: functional, cell-based, Homo sapiens; settings: Homo sapiens, NMC-G1;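 note: growth inhibition of the NMC-G1 cell line, measured with a cell viability read-out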
Description: SANGER: Inhibition of human NMC-G1 cell growth in a cell viability assay.

TGBC1TKB = assay type: functional, cell-based, Homo sapiens; settings: Homo sapiens, TGBC1TKB;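 note: growth inhibition of TGBC1TKB cells, read out by a cell viability assay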
Description: SANGER: Inhibition of human TGBC1TKB cell growth in a cell viability assay.

NCI-H1792 = assay type: functional, cell-based, Homo sapiens; settings: Homo sapiens, NCI-H1792;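 note: growth inhibition of human NCI-H1792 cells, read out as cell viability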
Description: SANGER: Inhibition of human NCI-H1792 cell growth in a cell viability assay.

HT-1376 = assay type: functional, cell-based, Homo sapiens; settings: Homo sapiens, HT-1376
Description: SANGER: Inhibition of human HT-1376 cell growth in a cell viability assay.

COLO-829 = assay type: functional, cell-based, Homo sapiens; settings: Homo sapiens, COLO-829
Description: SANGER: Inhibition of human COLO-829 cell growth in a cell viability assay.

C2BBe1 = assay type: functional, cell-based, Homo sapiens; settings: Homo sapiens, C2BBe1;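 note: growth inhibition of C2BBe1 cells, read out through a viability assay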
Description: SANGER: Inhibition of human C2BBe1 cell growth in a cell viability assay.

EW-16 = assay type: functional, cell-based, Homo sapiens; settings: Homo sapiens, EW-16;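 note: growth inhibition of human EW-16 cells, read out as cell viability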
Description: SANGER: Inhibition of human EW-16 cell growth in a cell viability assay.

SK-MEL-28 = assay type: functional, cell-based; settings: Homo sapiens;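 note: growth inhibition of human SK-MEL-28 cells, read out with a cell viability assay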
Description: SANGER: Inhibition of human SK-MEL-28 cell growth in a cell viability assay.

DMS-79 = assay type: functional, cell-based; settings: Homo sapiens;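 note: growth inhibition measured with a cell viability assay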
Description: SANGER: Inhibition of human DMS-79 cell growth in a cell viability assay.

KYSE-270 = assay type: functional, cell-based, Homo sapiens; settings: Homo sapiens, KYSE-270;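 note: cell growth inhibition measured with a viability assay in the human KYSE-270 line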
Description: SANGER: Inhibition of human KYSE-270 cell growth in a cell viability assay.

TE-11 = assay type: functional, cell-based, Homo sapiens; settings: Homo sapiens, TE-11;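 note: growth inhibition of human TE-11 cells, read out by a cell viability assay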
Description: SANGER: Inhibition of human TE-11 cell growth in a cell viability assay.

HSC-3 = assay type: functional, cell-based, Homo sapiens; settings: Homo sapiens, HSC-3
Description: SANGER: Inhibition of human HSC-3 cell growth in a cell viability assay.

SW626 = assay type: functional, cell-based, Homo sapiens; settings: Homo sapiens, SW626;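 note: growth inhibition of SW626 cells, measured with a cell viability assay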
Description: SANGER: Inhibition of human SW626 cell growth in a cell viability assay.

GI-ME-N = assay type: functional, cell-based, Homo sapiens; settings: Homo sapiens, GI-ME-N;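 note: growth inhibition of human GI-ME-N cells, read out with a cell viability assay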
Description: SANGER: Inhibition of human GI-ME-N cell growth in a cell viability assay.

HCC1395 = assay type: functional, cell-based, Homo sapiens; settings: Homo sapiens, HCC1395;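 note: growth inhibition of HCC1395 cells, read out by a cell viability assay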
Description: SANGER: Inhibition of human HCC1395 cell growth in a cell viability assay.

HTC-C3 = assay type: functional, cell-based, Homo sapiens; settings: Homo sapiens, HTC-C3;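 note: inhibition of cell growth, read out with a cell viability assay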
Description: SANGER: Inhibition of human HTC-C3 cell growth in a cell viability assay.

K562 = assay type: functional, cell-based; settings: Homo sapiens
Description: SANGER: Inhibition of human K-562 cell growth in a cell viability assay.

PANC-03-27 = assay type: functional, cell-based, Homo sapiens; settings: Homo sapiens, PANC-03-27
Description: SANGER: Inhibition of human PANC-03-27 cell growth in a cell viability assay.

D-336MG = assay type: functional, cell-based, Homo sapiens; settings: Homo sapiens, D-336MG
Description: SANGER: Inhibition of human D-336MG cell growth in a cell viability assay.

MDA-MB-175-VII = assay type: functional, cell-based, Homo sapiens; settings: Homo sapiens, MDA-MB-175-VII
GOTO = assay type: functional, cell-based, Homo sapiens; settings: Homo sapiens, GOTO;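 note: growth inhibition of GOTO cells, read out by a cell viability assay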
Description: SANGER: Inhibition of human GOTO cell growth in a cell viability assay.

HOP-92 = assay type: functional, cell-based, Homo sapiens; settings: Homo sapiens, HOP-92;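 note: cell viability readout, with IC50 reflecting inhibition of HOP-92 cell growth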
Description: SANGER: Inhibition of human HOP-92 cell growth in a cell viability assay.

NCI-H1563 = assay type: functional, cell-based, Homo sapiens; settings: Homo sapiens, NCI-H1563;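 note: growth inhibition of human NCI-H1563 cells, read out with a cell viability assay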
Description: SANGER: Inhibition of human NCI-H1563 cell growth in a cell viability assay.

CTV-1 = assay type: functional, cell-based; settings: Homo sapiens;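 note: growth inhibition of the cell line, read out with a cell viability assay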
Description: SANGER: Inhibition of human CTV-1 cell growth in a cell viability assay.

HLE = assay type: functional, cell-based, Homo sapiens; settings: Homo sapiens, HLE;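 note: growth inhibition of human HLE cells, read out by a cell viability assay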
Description: SANGER: Inhibition of human HLE cell growth in a cell viability assay.

D-502MG = assay type: functional, cell-based, Homo sapiens; settings: Homo sapiens, D-502MG
Description: SANGER: Inhibition of human D-502MG cell growth in a cell viability assay.

MKN-45 = assay type: functional, cell-based, Homo sapiens; settings: Homo sapiens, MKN-45;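 note: growth inhibition of human MKN-45 cells, measured with a cell viability assay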
KYSE-140 = assay type: functional, cell-based, Homo sapiens; settings: Homo sapiens, KYSE-140;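 note: cell viability assay measuring growth inhibition in human KYSE-140 cells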
Description: SANGER: Inhibition of human KYSE-140 cell growth in a cell viability assay.

S-117 = assay type: functional, cell-based, Homo sapiens; settings: Homo sapiens, S-117
Description: SANGER: Inhibition of human S-117 cell growth in a cell viability assay.

MIA PaCa-2 = assay type: functional, cell-based, Homo sapiens; settings: Homo sapiens, MIA PaCa-2;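 note: growth inhibition of MIA PaCa-2 cells, read out with a cell viability assay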
Description: SANGER: Inhibition of human MIA-PaCa-2 cell growth in a cell viability assay.

SNU-C2B = assay type: functional, cell-based, Homo sapiens; settings: Homo sapiens, SNU-C2B;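 note: cell viability readout used to measure compound-driven suppression of SNU-C2B cell proliferation, IC50 marking half-maximal growth inhibition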
Description: SANGER: Inhibition of human SNU-C2B cell growth in a cell viability assay.

RXF 393 = assay type: functional, cell-based; settings: Homo sapiens;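 note: growth inhibition of human RXF 393 cells, read out with a cell viability assay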
NB13 = assay type: functional, cell-based, Homo sapiens; settings: Homo sapiens, NB13;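 note: cell viability readout measuring growth inhibition of human NB13 cells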
Description: SANGER: Inhibition of human NB13 cell growth in a cell viability assay.

Becker = assay type: functional, cell-based, Homo sapiens; settings: Homo sapiens, Becker;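 note: growth inhibition of Becker cells, read out with a cell viability assay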
Description: SANGER: Inhibition of human Becker cell growth in a cell viability assay.

RH-1 = assay type: functional, cell-based, Homo sapiens; settings: Homo sapiens, RH-1;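 note: growth inhibition of human RH-1 cells, read out with a cell viability assay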
TYK-nu = assay type: functional, cell-based, Homo sapiens; settings: Homo sapiens, TYK-nu;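 note: growth inhibition of human TYK-nu cells, read out by a cell viability assay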
Description: SANGER: Inhibition of human TYK-nu cell growth in a cell viability assay.

SNU-5 = assay type: functional, cell-based; settings: Homo sapiens;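 note: cell viability readout used to measure growth inhibition in human NCI-SNU-5 cells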
Description: SANGER: Inhibition of human NCI-SNU-5 cell growth in a cell viability assay.

MHH-NB-11 = assay type: functional, cell-based, Homo sapiens; settings: Homo sapiens, MHH-NB-11;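 note: growth inhibition of human MHH-NB-11 cells, read out by a cell viability assay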
Description: SANGER: Inhibition of human MHH-NB-11 cell growth in a cell viability assay.

JVM-2 = assay type: functional, cell-based; settings: Homo sapiens;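 note: growth inhibition of JVM-2 cells determined by a cell viability assay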
Description: SANGER: Inhibition of human JVM-2 cell growth in a cell viability assay.

UACC-62 = assay type: functional, cell-based, Homo sapiens; settings: Homo sapiens, UACC-62;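 note: growth inhibition of human UACC-62 cells, read out by a cell viability assay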
Description: SANGER: Inhibition of human UACC-62 cell growth in a cell viability assay.

PANC-08-13 = assay type: functional, cell-based, Homo sapiens; settings: Homo sapiens, PANC-08-13;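 note: cell growth inhibition, measured with a cell viability assay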
Description: SANGER: Inhibition of human PANC-08-13 cell growth in a cell viability assay.

CAL-72 = assay type: functional, cell-based, Homo sapiens; settings: Homo sapiens, CAL-72;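 note: cell viability assay measuring inhibition of proliferation in the CAL-72 cell line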
Description: SANGER: Inhibition of human CAL-72 cell growth in a cell viability assay.

786-0 = assay type: functional, cell-based, Homo sapiens; settings: Homo sapiens
Description: SANGER: Inhibition of human 786-0 cell growth in a cell viability assay.

ME-180 = assay type: functional, cell-based; settings: Homo sapiens;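 note: cell viability assay measuring growth inhibition of ME-180 cells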
Description: SANGER: Inhibition of human ME-180 cell growth in a cell viability assay.

OE33 = assay type: functional, cell-based, Homo sapiens; settings: Homo sapiens, OE33;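 note: growth inhibition of human OE33 cells, measured by a cell viability assay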
Description: SANGER: Inhibition of human OE33 cell growth in a cell viability assay.

D-542MG = assay type: functional, cell-based, Homo sapiens; settings: Homo sapiens, D-542MG
Description: SANGER: Inhibition of human D-542MG cell growth in a cell viability assay.

DU-4475 = assay type: functional, cell-based; settings: Homo sapiens
Description: SANGER: Inhibition of human DU-4475 cell growth in a cell viability assay.

LB1047-RCC = assay type: functional, cell-based, Homo sapiens; settings: Homo sapiens, LB1047-RCC;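 note: inhibition of cell growth, determined with a cell viability assay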
Description: SANGER: Inhibition of human LB1047-RCC cell growth in a cell viability assay.

CP50-MEL-B = assay type: functional, cell-based, Homo sapiens; settings: Homo sapiens, CP50-MEL-B;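 note: growth inhibition of the human cell line, measured with a cell viability read-out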
Description: SANGER: Inhibition of human CP50-MEL-B cell growth in a cell viability assay.

KNS-81-FD = assay type: functional, cell-based, Homo sapiens; settings: Homo sapiens, KNS-81-FD;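 note: growth inhibition of KNS-81-FD cells, read out with a cell viability assay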
Description: SANGER: Inhibition of human KNS-81-FD cell growth in a cell viability assay.

With `CN(C)C/C=C/C(=O)Nc1cc2c(Nc3ccc(F)c(Cl)c3)ncnc2cc1O[C@H]1CCOC1` [AFATINIB] the pIC50 (NMC-G1) was under 6.30, the pIC50 (TGBC1TKB) was under 6.30 and the pIC50 (NCI-H1792) was under 6.30. It also gave a pIC50 (HT-1376) of under 6.30, a pIC50 (COLO-829) of under 6.30 and a pIC50 (C2BBe1) of under 6.30. The pIC50 (EW-16) was under 6.30, the pIC50 (SK-MEL-28) was under 6.30 and the pIC50 (DMS-79) was under 6.30. For the same compound, the pIC50 (KYSE-270) was under 6.30, the pIC50 (TE-11) was under 6.30 and the pIC50 (HSC-3) was 6.67. The pIC50 (SW626) was under 6.30, the pIC50 (GI-ME-N) was under 6.30 and the pIC50 (HCC1395) was under 6.30. It also gave a pIC50 (HTC-C3) of under 6.30, a pIC50 (K562) of under 6.30 and a pIC50 (PANC-03-27) of under 6.30. For the same compound, the pIC50 (D-336MG) was under 6.30, the pIC50 (MDA-MB-175-VII) was 7.47 and the pIC50 (GOTO) was under 6.30. For the same compound, the pIC50 (HOP-92) was under 6.30, the pIC50 (NCI-H1563) was under 6.30 and the pIC50 (CTV-1) was under 6.30. It also gave a pIC50 (HLE) of 6.46, a pIC50 (D-502MG) of under 6.30 and a pIC50 (MKN-45) of under 6.30. It also gave a pIC50 (KYSE-140) of 7.08, a pIC50 (S-117) of under 6.30 and a pIC50 (MIA PaCa-2) of under 6.30. It also gave a pIC50 (SNU-C2B) of under 6.30, a pIC50 (RXF 393) of under 6.30 and a pIC50 (NB13) of under 6.30. For the same compound, the pIC50 (Becker) was under 6.30, the pIC50 (RH-1) was under 6.30 and the pIC50 (TYK-nu) was under 6.30. For the same compound, the pIC50 (SNU-5) was under 6.30, the pIC50 (MHH-NB-11) was under 6.30 and the pIC50 (JVM-2) was under 6.30. The pIC50 (UACC-62) was under 6.30, the pIC50 (PANC-08-13) was under 6.30 and the pIC50 (CAL-72) was under 6.30. The pIC50 (786-0) was under 6.30, the pIC50 (ME-180) was under 6.30 and the pIC50 (OE33) was under 6.30. For the same compound, the pIC50 (D-542MG) was under 6.30, the pIC50 (DU-4475) was under 6.30 and the pIC50 (LB1047-RCC) was under 6.30. For the same compound, the pIC50 (CP50-MEL-B) was under 6.30 and the pIC50 (KNS-81-FD) was under 6.30.

Work on `O=C(NOCC1CC1)c1ccc(F)c(F)c1Nc1ccc(I)cc1Cl` [CI-1040] yielded a pIC50 (NMC-G1) of under 5.00, a pIC50 (TGBC1TKB) of 5.10 and a pIC50 (NCI-H1792) of 5.02. The pIC50 (HT-1376) was under 5.00, the pIC50 (COLO-829) was 5.79 and the pIC50 (C2BBe1) was 6.09. It also gave a pIC50 (EW-16) of 5.09, a pIC50 (SK-MEL-28) of 6.52 and a pIC50 (DMS-79) of under 5.00. For the same compound, the pIC50 (KYSE-270) was under 5.00, the pIC50 (TE-11) was under 5.00 and the pIC50 (HSC-3) was 5.49. For the same compound, the pIC50 (SW626) was 5.39, the pIC50 (GI-ME-N) was under 5.00 and the pIC50 (HCC1395) was under 5.00. The pIC50 (HTC-C3) was 6.33, the pIC50 (K562) was 5.05 and the pIC50 (PANC-03-27) was 5.47. It also gave a pIC50 (D-336MG) of under 5.00, a pIC50 (MDA-MB-175-VII) of under 5.00 and a pIC50 (GOTO) of under 5.00. The pIC50 (HOP-92) was 5.37, the pIC50 (NCI-H1563) was under 5.00 and the pIC50 (CTV-1) was under 5.00. The pIC50 (HLE) was under 5.00, the pIC50 (D-502MG) was under 5.00 and the pIC50 (MKN-45) was 5.02. For the same compound, the pIC50 (KYSE-140) was 5.22, the pIC50 (S-117) was under 5.00 and the pIC50 (MIA PaCa-2) was 5.52. The pIC50 (SNU-C2B) was under 5.00, the pIC50 (RXF 393) was 5.70 and the pIC50 (NB13) was under 5.00. For the same compound, the pIC50 (Becker) was under 5.00, the pIC50 (RH-1) was under 5.00 and the pIC50 (TYK-nu) was 5.99. It also gave a pIC50 (SNU-5) of 5.43, a pIC50 (MHH-NB-11) of 5.16 and a pIC50 (JVM-2) of under 5.00. It also gave a pIC50 (UACC-62) of under 5.00, a pIC50 (PANC-08-13) of under 5.00 and a pIC50 (CAL-72) of under 5.00. It also gave a pIC50 (786-0) of 5.49, a pIC50 (ME-180) of 5.25 and a pIC50 (OE33) of under 5.00. For the same compound, the pIC50 (D-542MG) was under 5.00, the pIC50 (DU-4475) was 7.12 and the pIC50 (LB1047-RCC) was 5.32. For the same compound, the pIC50 (CP50-MEL-B) was 6.76 and the pIC50 (KNS-81-FD) was under 5.00.

From ChEMBL document CHEMBL1201861, “Genomics of Drug Sensitity in Cancer screening data, Wellcome Trust Sanger Institute”
